This data set is described as follows: Determination of the solubility in cosmetic solvents. Particulars: saturated solution stirred 7 days at room temperature, concentration by HPLC; for solubility Finsolv TN: C12-15 Alkylbenzoate; for solubility Myritol 318: Capric/Caprylic Triglyceride. The format is physicochemical.

Consider 5 compounds from patent publication US8895754B2, “Process to make UV radiation absorbing 2-phenyl-1,2,3,-benzotriazoles” (DSM IP Assets B.V., priority 2010, dated 2014).

Procedure: 1.5 g of a cosmetic solvent (Capric/Caprylic Triglyceride (Mygliol 318) and C12-15 Alkylbenzoate (Finsolv TN)) is saturated with the respective Benzotriazol-derivative by adding 0.2 g portions while stirring at room temperature. The saturated solution is stirred for 7 days at room temperature. 1 ml of the supernatant is centrifuged and filtered in order to obtain a clear solution. The concentration of the Benzotriazol-derivative is determined by means of HPLC.

In the case of `Cc1cc(COC(=O)CC(C)C)c(O)c(-n2nc3ccccc3n2)c1` [Example 8, 3-Methyl-butyric Acid 3-(2H-benzotriazol-2-yl)-2-hydroxy-5-methyl-benzyl Ester], the “solubility Finsolv TN” value turned out to be 8% and the “solubility Myritol 318” value was determined as 6%.

Turning to `Cc1cc(COCCC(C)C)c(O)c(-n2nc3ccc(Cl)cc3n2)c1` [Example 6, 2-(5-Chloro-2H-benzotriazol-2-yl)-4-methyl-6-(3-methyl-butoxymethyl)-phenol], the “solubility Finsolv TN” value is given as 19% and the “solubility Myritol 318” value amounted to 12%.

For the compound `Cc1cc(COCCC(C)C)c(O)c(-n2nc3ccccc3n2)c1` [Example 4, 2-(2H-Benzotriazol-2-yl)-6-(3-methyl-butoxymethyl)-4-methyl-phenol], the “solubility Finsolv TN” value was found to be 37% and the “solubility Myritol 318” value is 36%.

As for `Cc1cc(COCc2cc(C)cc(-n3nc4ccccc4n3)c2O)c(O)c(-n2nc3ccccc3n2)c1` [Example 9, 3,3′-Bis(2H-benzotriazol-2-yl)-2,2′-dihydroxy-5,5′-dimethylbenzyl Ether], the “solubility Finsolv TN” value amounted to 0.02% and the “solubility Myritol 318” value turned out to be 0.01%.

Regarding `CCCCC(CC)C(=O)OCc1cc(C)cc(-n2nc3ccccc3n2)c1O` (stereo not shown) [Example 7, 2-Ethyl-hexanoic Acid 3-(2H-benzotriazol-2-yl)-2-hydroxy-5-methyl-benzyl Ester], the “solubility Finsolv TN” value was found to be 42% and the “solubility Myritol 318” value stood at 24%.
